In patent US20230265116A1, “DEGRADATION OF (EGFR) BY CONJUGATION OF EGFR INHIBITORS WITH E3 LIGASE LIGAND AND METHODS OF USE” (BEIGENE, LTD., priority 2020, published 2023):
Like-named read-outs stand apart in the source and are kept apart here.

Experiments:
[1] = biological target: T1, EGFR L858R/T790M/C797S (BaF3-LTC cells) (Homo sapiens, UniProt P00533, C797S/L858R/T790M); assay: EGFR degradation HTRF assay, BaF3-LTC cells; format: cell-based
T1 construct: expressed in transfected cells; host or cells: BaF3
Procedure, shortened: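 Cells treated 16 h at 37 °C, 5% CO2 in medium with 0.2% DMSO; top final concentration 10 uM, 5-fold dilution, 8 doses. Lysates read by HTRF (665/620 nm); degradation % versus DMSO high control, DC50 from four-parameter fit, Dmax as maximal degradation.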

[2] = system: EGFR Del19/T790M/C797S (H1975-clone #28); assay: EGFR degradation HTRF assay, H1975-clone #28 DTC cells; format: cell-based
Procedure, shortened: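 The test uses H1975 clonal lines carrying lentiviral mutant EGFR with endogenous copies removed, treated 16h at 37° C., 5% CO2. EGFR left in the lysate is quantified by HTRF, and DC50 is derived from an 8-dose curve starting at 10 uM final.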

[3] = BaF3-LTC cells; EGFR degradation, IC50 (DC50) from curve fit; read-out: DC50(nM) BaF3-LTC
[4] = BaF3-LTC cells; maximum percentage of inhibition (degradation); read-out: Dmax (%) BaF3-LTC
[5] = H1975 # 28 DTC cells; EGFR degradation, IC50 (DC50) from curve fit; read-out: DC50(nM) H1975 # 28 DTC
[6] = H1975 # 28 DTC cells; maximum percentage of inhibition (degradation)
[7] = read-out: DC50(nM) H1975 # 28 DTC; H1975 # 28 DTC cells; EGFR degradation, IC50 (DC50) from curve fit

T1 sequence (P00533 25-1210 T790M/C797S/L858R): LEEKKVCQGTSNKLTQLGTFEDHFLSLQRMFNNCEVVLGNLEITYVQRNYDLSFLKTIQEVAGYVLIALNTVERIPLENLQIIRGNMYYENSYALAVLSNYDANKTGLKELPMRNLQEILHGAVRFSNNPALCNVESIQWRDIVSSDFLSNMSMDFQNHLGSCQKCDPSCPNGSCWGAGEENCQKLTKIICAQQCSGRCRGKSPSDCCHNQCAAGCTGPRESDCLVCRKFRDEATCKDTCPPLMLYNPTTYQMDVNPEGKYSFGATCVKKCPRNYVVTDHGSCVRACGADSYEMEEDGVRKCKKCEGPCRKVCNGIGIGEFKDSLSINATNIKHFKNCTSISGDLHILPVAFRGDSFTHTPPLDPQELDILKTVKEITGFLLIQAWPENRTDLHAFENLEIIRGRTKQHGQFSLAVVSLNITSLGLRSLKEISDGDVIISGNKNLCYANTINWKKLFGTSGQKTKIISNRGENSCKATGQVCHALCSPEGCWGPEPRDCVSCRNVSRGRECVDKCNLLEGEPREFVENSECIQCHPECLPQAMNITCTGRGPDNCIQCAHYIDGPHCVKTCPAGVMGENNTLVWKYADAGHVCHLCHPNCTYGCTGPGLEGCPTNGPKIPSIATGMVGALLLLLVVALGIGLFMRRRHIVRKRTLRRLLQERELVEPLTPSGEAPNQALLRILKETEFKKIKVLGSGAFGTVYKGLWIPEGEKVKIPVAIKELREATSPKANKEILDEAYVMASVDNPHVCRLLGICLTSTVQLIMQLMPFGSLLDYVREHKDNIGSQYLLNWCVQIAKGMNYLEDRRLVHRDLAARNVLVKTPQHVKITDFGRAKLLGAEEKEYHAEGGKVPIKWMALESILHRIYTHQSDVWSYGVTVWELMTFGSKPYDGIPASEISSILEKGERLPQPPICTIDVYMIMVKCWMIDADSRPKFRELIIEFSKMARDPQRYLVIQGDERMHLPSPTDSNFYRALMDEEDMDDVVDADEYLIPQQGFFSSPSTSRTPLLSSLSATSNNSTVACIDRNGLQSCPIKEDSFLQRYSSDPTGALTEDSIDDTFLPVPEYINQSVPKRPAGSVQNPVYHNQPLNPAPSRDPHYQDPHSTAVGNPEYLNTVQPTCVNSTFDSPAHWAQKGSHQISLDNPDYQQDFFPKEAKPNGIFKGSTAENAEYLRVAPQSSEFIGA

DC50 [1, 3] [nM]	Dmax [1, 4] [%]	DC50 [2, 5] [nM]	SMILES	Dmax (%) H1975 # 28 DTC [2, 6] [%]	DC50 ([1]; read-out: DC50(nM) BaF3-LTC; BaF3-LTC cells; EGFR degradation, IC50 (DC50) from curve fit) [nM]	Dmax ([1]; read-out: Dmax (%) BaF3-LTC, BaF3-LTC cells; maximum percentage of inhibition (degradation)) [%]	DC50 [2, 7] [nM]
132	90	38.8	CCOc1cc(N2CCC(N3CCN(CCc4c(C)ccc5c4n(C)c(=O)n5C4CCC(=O)NC4=O)CC3)CC2)c(CC)cc1Nc1ncc(Br)c(Nc2ccc3nc(CC)ccc3c2P(C)(C)=O)n1 (centres unmarked) [Example 461, 3-(4-(2-(4-(1-(4-((5-bromo-4-((5-(dimethylphosphoryl)-2-ethylquinolin-6-yl)amino)pyrimidin-2-yl)amino)-5-ethoxy-2-ethylphenyl)piperidin-4-yl)piperazin-1-yl)ethyl)-3,5-dimethyl-2-oxo-2,3-dihydro-1H-benzo[d]imidazol-1-yl)piperidine-2,6-dione]	75.83	–	–	–
1.49	97.9	0.543	CCc1ccc2c(P(C)(C)=O)c(Nc3nc(Nc4cc(CC)c(N5CCC(N6CCN(C(=O)CN7CCN(c8cc(F)c([C@H]9CCC(=O)NC9=O)c(F)c8)CC7)CC6)CC5)cc4OC)ncc3Br)ccc2n1 [Example 665, (R)-3-(4-(4-(2-(4-(1-(4-((5-bromo-4-((5-(dimethylphosphoryl)-2-ethylquinolin-6-yl)amino)pyrimidin-2-yl)amino)-2-ethyl-5-methoxyphenyl)piperidin-4-yl)piperazin-1-yl)-2-oxoethyl)piperazin-1-yl)-2,6-difluorophenyl)piperidine-2,6-dione]	85.47	–	–	–
40.3	–	2.25	CCc1ccc2c(P(C)(C)=O)c(Nc3nc(Nc4cc(CC)c(N5CCC(C6CCN(CCc7cc(F)c([C@H]8CCC(=O)NC8=O)c(F)c7)CC6)CC5)cc4OC)ncc3Br)ccc2n1 [Example 745, (R)-3-(4-(2-(1′-(4-((5-bromo-4-((5-(dimethylphosphoryl)-2-ethylquinolin-6-yl)amino)pyrimidin-2-yl)amino)-2-ethyl-5-methoxyphenyl)-[4,4′-bipiperidin]-1-yl)ethyl)-2,6-difluorophenyl)piperidine-2,6-dione]	75.21	–	–	–
7.79	92.2	0.9	CCc1ccc2c(P(C)(C)=O)c(Nc3nc(Nc4cc(CC)c(N5CCC(N6CCN(CCCOc7cc(F)c([C@H]8CCC(=O)NC8=O)c(F)c7)CC6)CC5)cc4OC)ncc3Br)ccc2n1 [Example 734, (R)-3-(4-(3-(4-(1-(4-((5-bromo-4-((5-(dimethylphosphoryl)-2-ethylquinolin-6-yl)amino)pyrimidin-2-yl)amino)-2-ethyl-5-methoxyphenyl)piperidin-4-yl)piperazin-1-yl)propoxy)-2,6-difluorophenyl)piperidine-2,6-dione]	76.3	–	–	–
11.2	–	0.761	CCc1cc(Nc2ncc(Br)c(Nc3ccc4nc(C5CC5)ccc4c3P(C)(C)=O)n2)c(OC)cc1N1CCC(N2CCN(CCc3cc(F)c([C@H]4CCC(=O)NC4=O)c(F)c3)CC2)CC1 [Example 741, (R)-3-(4-(2-(4-(1-(4-((5-bromo-4-((2-cyclopropyl-5-(dimethylphosphoryl)quinolin-6-yl)amino)pyrimidin-2-yl)amino)-2-ethyl-5-methoxyphenyl)piperidin-4-yl)piperazin-1-yl)ethyl)-2,6-difluorophenyl)piperidine-2,6-dione]	80.67	–	–	–
17.3	88.6	3.55	CCOc1cc(N2CCC(N3CCN(CCc4c(F)cc5c(oc(=O)n5C5CCC(=O)NC5=O)c4C)CC3)CC2)c(CC)cc1Nc1ncc(Br)c(Nc2ccc3c(=O)n(CC)ncc3c2P(C)(C)=O)n1 (centres unmarked) [Example 613, 3-(6-(2-(4-(1-(4-((5-bromo-4-((5-(dimethylphosphoryl)-2-ethyl-1-oxo-1,2-dihydrophthalazin-6-yl)amino)pyrimidin-2-yl)amino)-5-ethoxy-2-ethylphenyl)piperidin-4-yl)piperazin-1-yl)ethyl)-5-fluoro-7-methyl-2-oxobenzo[d]oxazol-3(2H)-yl)piperidine-2,6-dione]	71.47	–	–	–
2.13	87.7	1.17	CCOc1cc(N2CCC(N3CCN(CCc4ccc5c(c4)oc(=O)n5C4CCC(=O)NC4=O)CC3)CC2)c(CC)cc1Nc1ncc(Br)c(Nc2ccc3nc(C)c(F)cc3c2P(C)(C)=O)n1 (centres unmarked) [Example 651, 3-(6-(2-(4-(1-(4-((5-bromo-4-((5-(dimethylphosphoryl)-3-fluoro-2-methylquinolin-6-yl)amino)pyrimidin-2-yl)amino)-5-ethoxy-2-ethylphenyl)piperidin-4-yl)piperazin-1-yl)ethyl)-2-oxobenzo[d]oxazol-3(2H)-yl)piperidine-2,6-dione]	79.33	–	–	–
–	–	–	CCOc1cc(N2CCC(N3CCN(C(=O)CCC4CN(c5cccc6c5oc(=O)n6C5CCC(=O)NC5=O)C4)CC3)CC2)c(CC)cc1Nc1ncc(Br)c(Nc2ccc3nc(CC)ccc3c2P(C)(C)=O)n1 (centres unmarked) [Example 625, 3-(7-(3-(3-(4-(1-(4-((5-bromo-4-((5-(dimethylphosphoryl)-2-ethylquinolin-6-yl)amino)pyrimidin-2-yl)amino)-5-ethoxy-2-ethylphenyl)piperidin-4-yl)piperazin-1-yl)-3-oxopropyl)azetidin-1-yl)-2-oxobenzo[d]oxazol-3(2H)-yl)piperidine-2,6-dione]	80.1	11	88.8	1.86
8.28	93.8	2.04	CCOc1cc(N2CCC(N3CCN(CCCc4cc(F)cc5c4oc(=O)n5C4CCC(=O)NC4=O)CC3)CC2)c(CC)cc1Nc1ncc(Br)c(Nc2cc(F)c3nc(CC)ccc3c2P(C)(C)=O)n1 (centres unmarked) [Example 620, 3-(7-(3-(4-(1-(4-((5-bromo-4-((5-(dimethylphosphoryl)-2-ethyl-8-fluoroquinolin-6-yl)amino)pyrimidin-2-yl)amino)-5-ethoxy-2-ethylphenyl)piperidin-4-yl)piperazin-1-yl)propyl)-5-fluoro-2-oxobenzo[d]oxazol-3(2H)-yl)piperidine-2,6-dione]	78.78	–	–	–
2.6	94.3	0.691	CCc1cc(Nc2ncc(Br)c(Nc3ccc4nc(C)ccc4c3P(C)(C)=O)n2)c(OC)cc1N1CCC(N2CCN(C[C@H]3CCN(c4ccc5c(c4)oc(=O)n5C4CCC(=O)NC4=O)C3)CC2)CC1 (stereo partly drawn) [Example 525, 3-(6-((R)-3-((4-(1-(4-((5-bromo-4-((5-(dimethylphosphoryl)-2-methylquinolin-6-yl)amino)pyrimidin-2-yl)amino)-2-ethyl-5-methoxyphenyl)piperidin-4-yl)piperazin-1-yl)methyl)pyrrolidin-1-yl)-2-oxobenzo[d]oxazol-3(2H)-yl)piperidine-2,6-dione]	50.86	–	–	–
6.73	–	0.64	CCOc1cc(N2CCC(N3CCN(CCc4cc(F)c([C@H]5CCC(=O)NC5=O)c(F)c4)CC3)CC2)c(CC)cc1Nc1ncc(Br)c(Nc2ccc3nc(C)ncc3c2P(C)(C)=O)n1 [Example 738, (R)-3-(4-(2-(4-(1-(4-((5-bromo-4-((5-(dimethylphosphoryl)-2-methylquinazolin-6-yl)amino)pyrimidin-2-yl)amino)-5-ethoxy-2-ethylphenyl)piperidin-4-yl)piperazin-1-yl)ethyl)-2,6-difluorophenyl)piperidine-2,6-dione]	84.3	–	–	–
4.11	–	0.717	CCc1cc(Nc2ncc(Br)c(Nc3ccc4nc(C)ncc4c3P(C)(C)=O)n2)c(OC)cc1N1CCC(N2CCN(C(=O)[C@H]3CN(c4cc(F)c([C@H]5CCC(=O)NC5=O)c(F)c4)CC3(C)C)CC2)CC1 [Example 740, (R)-3-(4-((R)-4-(4-(1-(4-((5-bromo-4-((5-(dimethylphosphoryl)-2-methylquinazolin-6-yl)amino)pyrimidin-2-yl)amino)-2-ethyl-5-methoxyphenyl)piperidin-4-yl)piperazine-1-carbonyl)-3,3-dimethylpyrrolidin-1-yl)-2,6-difluorophenyl)piperidine-2,6-dione]	87.27	–	–	–

SMILES	DC50 [1, 3] [nM]	Dmax [1, 4] [%]	DC50 [2, 5] [nM]	Dmax (%) H1975 # 28 DTC [2, 6] [%]	DC50 ([1]; read-out: DC50(nM) BaF3-LTC; BaF3-LTC cells; EGFR degradation, IC50 (DC50) from curve fit) [nM]	Dmax ([1]; read-out: Dmax (%) BaF3-LTC, BaF3-LTC cells; maximum percentage of inhibition (degradation)) [%]	DC50 [2, 7] [nM]
CCOc1cc(N2CCC(N3CCN(CCc4cccc5c4oc(=O)n5C4CCC(=O)NC4=O)CC3)CC2)c(CC)cc1Nc1ncc(Br)c(Nc2ccc3nc(CC)ncc3c2P(C)(C)=O)n1 (centres unmarked) [Example 563, 3-(7-(2-(4-(1-(4-((5-bromo-4-((5-(dimethylphosphoryl)-2-ethylquinazolin-6-yl)amino)pyrimidin-2-yl)amino)-5-ethoxy-2-ethylphenyl)piperidin-4-yl)piperazin-1-yl)ethyl)-2-oxobenzo[d]oxazol-3(2H)-yl)piperidine-2,6-dione]	7.69	–	–	81.88	–	–	0.732
